Mortality data for 2 molecules are collected here from ChEMBL document CHEMBL3046960, “Are traditional neem extract preparations as efficient as a commercial formulation of azadirachtin A?” (2011).

What all share (type): functional
The subject of assay [1] is Macrosteles quadripunctulatus. Description: Insecticidal activity against third to fourth-instar nymphs stage Macrosteles quadripunctulatus assessed as mortality rate at 25 mg/L (reference value: 11.4%).
Another assay deals with Spodoptera littoralis. Nature of the assay: Insecticidal activity against third to fourth instar larvae Spodoptera littoralis in broad bean plant assessed as mortality rate at 25 mg/L (reference value: 33.3%).
A further assay relates to Bemisia tabaci. Nature of the assay: Insecticidal activity against Bemisia tabaci (sweet potato whitefly) in cucumber plant assessed as mortality rate at 25 mg/L relative to control.

Usually mortality stands for the share of the test organisms that died. Consider `C/C=C(\C)C(=O)O[C@H]1C[C@@H](OC(C)=O)[C@@]2(C(=O)OC)CO[C@H]3[C@@H](O)[C@@](C)([C@]45O[C@@]4(C)[C@@H]4C[C@H]5O[C@@H]5OC=C[C@@]54O)[C@H]4[C@]1(CO[C@]4(O)C(=O)OC)[C@@H]32` [AZADIRACHTIN A], for which the mortality at 25 µg/mL in assay [1] turned out to be 30%; with Spodoptera littoralis it was 83.5%; in the assay on Bemisia tabaci, 82.8%.

Turning to `C/C=C(\C)C(=O)O[C@H]1C[C@@H](OC(C)=O)[C@@]2(C(=O)OC)CO[C@H]3[C@@H](O)[C@@](C)([C@]45O[C@@]4(C)[C@H]4C[C@@H]5O[C@@H]5OC=C[C@@]54O)[C@H]4[C@]1(CO[C@]4(O)C(=O)OC)[C@@H]32` [AZADIRACTIN], the mortality at 25 µg/mL turned out to be 85.7% in assay [1], 100% with Spodoptera littoralis and 94.1% in the assay with Bemisia tabaci.
